Measurements reported in publication PMC2653189 (PLoS ONE, 2009).
Like-named read-outs stand apart in the source and are kept apart here.

Experiments:
MDA-MB-468 = assay: Breast cancer cell line apoptosis assay (nucleosome ELISA); type: cell-based; settings: Homo sapiens, 24 hr, read-out: EC50 apoptosis induction
Procedure: (§1) Human breast carcinoma cell lines MDA-MB-468, MDA-MB-231, MBA-MD-435 and MCF7 were kindly provided by Dr. Powel H. Brown (Breast Cancer Center, Baylor College of Medicine). Breast cancer cell line, MDA-MB-453 was kindly provided by Dr. Shou Jiang (Breast Cancer Center, Baylor College of Medicine). All cell lines were grown in DMEM medium supplemented with 10% fetal bovine serum (FBS), 25,000 units penicillin G, 25,000 µg streptomycin, and 131.4 mg L-Glutamine and cultured in the incubator under the condition of 95% air, 5% CO2 at 37°C [33]. Cells were seeded at 2,500 cells/cm^2 into 12-well plates. At 80% confluency, cells were washed with PBS and supplemented with fresh medium containing compound or the topoisomerase I-inhibitor, camptothecin, at 0, 0.1, 0.3, 1, 3, 10, 30, 100, 300 µM. At 24 hours, treatment was terminated by removing the medium from each well. Cells were lysed with cell lysis buffer (600 µl for 30 minutes at 25°C). Cell lysate (200 µl) was centrifuged at 200 g for 10 minutes and 20 µl of each supernatant was assayed for nucleosomes using the Cell Death Detection ELISA (Roche Applied Science) as described by the manufacturer. The percent maximum nucleosome level was calculated by dividing the nucleosome level by the maximum nucleosome level achieved in the assay and multiplying by 100. This value was plotted as a function of the log compound concentration and the best-fitting curve and EC50 value determined using 4-Parameter Logistic Model/Dose Response/XLfit 4.2, IDBS software.
(§2) Figure 5 Apoptosis induction of breast cancer cell lines by compounds; selective apoptosis of cell lines that are Stat3 dependent. MDA-MB-468 (panel A), MDA-MB-231 (panel B), MDA-MB-435 (panel C), MCF7 (panel D) and MDA-MB-453 (panel E) were seeded in 12-well plates, grown overnight then treated with the indicated compound for 24 hr. Cells were centrifuged and the supernatants assayed for nucleosome levels by ELISA. The percent maximum nucleosome level was calculated (nucleosome level ÷ maximum nucleosome level achieved in the assay ×100) and plotted as a function of the log compound concentration. The best-fitting curve was determined using 4-ParameterLogistic Model/Dose Response One Site/XLfit 4.2, IDBS software and was used to determine the EC50 value (Table 3).

MDA-MB-435 = assay: as above; type: cell-based; settings: Homo sapiens, 24 hr, read-out: EC50 apoptosis induction
Procedure: as §1, §2

MCF7 = assay: as above; type: cell-based; settings: Homo sapiens, 24 hr, read-out: EC50 apoptosis induction
Procedure: as §1, §2

MDA-MB-231 = assay: as above; type: cell-based; settings: Homo sapiens, 24 hr, read-out: EC50 apoptosis induction
Procedure: as §1, §2

MDA-MB-453 = assay: as above; type: cell-based; settings: Homo sapiens, 24 hr, read-out: EC50 apoptosis induction
Procedure: as §1, §2

[1] = tested on: breast cancer cell lines tested; assay: Apoptosis assay, all breast cancer cell lines tested; type: cell-based, Human; settings: any of the breast cancer cell lines tested; data not shown
Procedure: as §1, with “Cell lysate (200 µl) was centrifuged at 200 g for 10 minutes and 20 µl of each supernatant was assayed for nucleosomes using the Cell Death Detection ELISA (Roche Applied Science) as described by the manufacturer.” left out

[2] = tested on: IFN-γ-mediated Stat1 phosphorylation; assay: Immunoblot of IFN-γ-mediated Stat1 phosphorylation in HepG2 cells; type: cell-based, human; settings: compound 300 µM 1 hour, IFN-γ 30 ng/ml 30 min
Procedure: (§3) The human hepatocellular carcinoma cell line (HepG2) was grown in 6-well plates under standard conditions. Cells were pretreated with compounds (0, 1, 3, 10, 30, 100 and 300 µM) for 1 hour then stimulated under optimal conditions with either interleukin-6 (IL-6; 30 ng/ml for 30 min) to activate Stat3 or interferon gamma (IFN-γ; 30 ng/ml for 30 min) to activate Stat1 [28]. Cultures were then harvested and proteins extracted using high-salt buffer, as described. Briefly, extracts were mixed with 2× sodium dodecyl sulfate (SDS) sample buffer (125 mM Tris-HCL pH 6.8; 4% SDS; 20% glycerol; 10% 2-mercaptoethanol) at a 1∶1 ratio and heated for 5 minutes at 100°C. Proteins (20 µg) were separated by 7.5% SDS-PAGE and transferred to polyvinylidene fluoride (PVDF) membrane (Millipore, Waltham, MA) and immunoblotted. Prestained molecular weight markers (BioRad; Hercules, CA) were included in each gel. Membranes were probed serially with antibody against Stat1 pY701 or Stat3 pY705 followed by antibody against Stat1 or Stat3 (Transduction labs, Lexington, KY) then antibody against β–actin (Abcam, Cambridge, MA). Membranes were stripped between antibody probing using Restore™ Western Blot Stripping Buffer (Thermo Fisher Scientific Inc., Waltham, MA) per the manufacturer's instructions. Horseradish peroxidase-conjugated goat-anti-mouse IgG was used as the secondary antibody (Invitrogen Carlsbad, CA) and the membranes were developed with enhanced chemiluminescence (ECL) detection system (Amersham Life Sciences Inc.; Arlington Heights, IL.).
Figure 2 Effect of compounds on ligand-mediated Stat3 and Stat1 phosphorylation. […] Cells were then stimulated with IL-6 (30 ng/ml) for 30 min. Protein extracts of cells were separated by SDS-PAGE, blotted and developed serially with antibodies to pStat3, total Stat3 and β-actin. Blots were stripped between each antibody probing. Band intensities were quantified by densitometry. The value of each pStat3 band was divided by its corresponding total Stat3 band intensity; the results were normalized to the DMSO-treated control value. This value was plotted as a function of the log compound concentration. The best-fitting curve was determined using 4-Parameter Logistic Model/Dose Response/XLfit 4.2, IDBS software and was used to calculate the IC50 value (Table 1). Each panel is representative of 3 or more experiments. In panel G, HepG2 cells were pretreated with DMSO alone or DMSO containing each of the compounds at a concentration of 300 µM for 60 min. Cells were then stimulated with IFN-γ (30 ng/ml) for 30 min. Protein extracts of cells were separated by SDS-PAGE and immunoblotted serially with antibodies to pStat1, total Stat1 and β-actin. Blots were stripped between each immunoblotting. The results shown are representative of 2 or more experiments.

[3] = tested on: breast cancer cell lines with constitutive Stat3 activity—MDA-MB-468, MDA-MB-231 and MDA-MB-435; assay: Apoptosis assay, summary over the cell lines with constitutive Stat3 activity; type: cell-based; settings: Homo sapiens
Procedure: as §1, with “100.” for “100. This value was plotted as a function of the log compound concentration and the best-fitting curve and EC50 value determined using 4-Parameter Logistic Model/Dose Response/XLfit 4.2, IDBS software.”
as §2, with “MDA-MB-468” for “Figure 5 Apoptosis induction of breast cancer cell lines by compounds; selective apoptosis of cell lines that are Stat3 dependent. MDA-MB-468”

[4] = tested on: cell lines MDA-MB-453 and MCF7; assay: Apoptosis assay, summary over the cell lines without constitutive Stat3 activity; type: cell-based; settings: Homo sapiens
Procedure: as §1, with “100.” for “100. This value was plotted as a function of the log compound concentration and the best-fitting curve and EC50 value determined using 4-Parameter Logistic Model/Dose Response/XLfit 4.2, IDBS software.”
as §2, with “MDA-MB-468” for “Figure 5 Apoptosis induction of breast cancer cell lines by compounds; selective apoptosis of cell lines that are Stat3 dependent. MDA-MB-468”

Stat3 = Stat3 (Homo sapiens, UniProt P40763); assay: Stat3/pY-peptide binding assay (SPR, BIAcore)
Procedure: A control (Stat3 with DMSO but without compound) was run at the beginning and the end of each cycle (40 sample injections) to ensure that the integrity of the sensor chip was maintained throughout the cycle run. The average of the two controls was normalized to 100% and used to evaluate the effect of each compound on Stat3 binding. Responses were normalized by dividing the value at 2 min by the response obtained in the absence of compounds at 2 min and multiplying by 100.

[5] = tested on: IL-6-mediated phosphorylation of Stat3; assay: Immunoblot of IL-6-mediated Stat3 phosphorylation in HepG2 cells; type: cell-based; settings: Homo sapiens, compound 60 min, then IL-6 30 ng/ml 30 min, read-out: pStat3 IC50, inhibition of IL-6-mediated Stat3 phosphorylation
Procedure: as §3
Figure 2 Effect of compounds on ligand-mediated Stat3 and Stat1 phosphorylation. […] Cells were then stimulated with IL-6 (30 ng/ml) for 30 min. Protein extracts of cells were separated by SDS-PAGE, blotted and developed serially with antibodies to pStat3, total Stat3 and β-actin. Blots were stripped between each antibody probing. Band intensities were quantified by densitometry. […] The best-fitting curve was determined using 4-Parameter Logistic Model/Dose Response/XLfit 4.2, IDBS software and was used to calculate the IC50 value (Table 1). […]

[6] = tested on: IL-6-mediated Stat3 nuclear translocation (GFP-Stat3α); assay: HTFM nuclear translocation assay in MEF/GFP-Stat3α cells; type: cell-based, murine
Procedure: Confocal and high-throughput fluorescence microscopy (HTFM) of MEF/GFP-Stat3α cells were performed as described. Briefly, for confocal fluorescence microscopy, cells were grown in 6-well plates containing a cover slip. For HTFM, cells were seeded into 96-well CC3 plates at a density of 5,000 cells/well using an automated plating system. Cells were cultured under standard conditions until 85–90% confluent. Cells were pre-treated with compound for 1 hour at 37°C then stimulated with IL-6 (200 ng/ml) and IL-6sR (250 ng/ml) for 30 minutes to provide optimal Stat3 activation and nuclear translocation in these cells, as described. Cells were fixed with 4% formaldehyde in PEM Buffer (80 mM Potassium PIPES, pH 6.8, 5 mM EGTA pH 7.0, 2 mM MgCl2) for 30 minutes at 4°C, quenched in 1 mg/ml of NaBH4 (Sigma) in PEM buffer and counterstained for 1 min in 4,6-diamidino-2-phenylindole (DAPI; Sigma; 1 mg/ml) in PEM buffer. Cover slips were examined by confocal fluorescent microscopy. Plates were analyzed by automated HTFM using the Cell Lab IC Image Cytometer (IC100) platform and Cytoshop Version 2.1 analysis software (Beckman Coulter). Nuclear translocation is quantified by using the fraction localized in the nucleus (FLIN) measurement. FLIN values were normalized by subtracting the FLIN for unstimulated cells then dividing this difference by the maximum difference (delta, Δ) in FLIN (FLIN in cells stimulated with IL-6/sIL-6R in the absence of compound minus FLIN of unstimulated cells). This ratio was multiplied by 100 to obtain the percentage of maximum difference in FLIN and was plotted, where indicated, as a function of the log compound concentration. The best-fitting curve and IC50 value were determined using 4-Parameter Logistic Model/Dose Response/XLfit 4.2, IDBS software.
Figure 4 Inhibition of cytoplasmic-to-nuclear translocation of Stat3 assessed by confocal and high-throughput fluorescence microscopy (HTFM). […] Coverslips were examined by confocal fluorescent microscopy using filters to detect GFP (column one), DAPI (column two) or both (merge; column three). In panel B, MEF-GFP-Stat3 cells were grown in 96-well plates with optical glass bottoms and pre-treated with the indicated compound at the indicated concentrations in quadruplicate for 1 hour then stimulated with IL-6 (200 ng/ml) and IL-6sR (250 ng/ml) for 30 minutes. Cells were fixed and the plates were examined by high-throughput microscopy to determine the fluorescence intensity in the nucleus (FLIN). The percent of maximum change (delta, Δ) in FLIN was calculated as described in the Methods and plotted as a function of the log of the compound concentration. […] Best-fit curves were determined using 4-Parameter Logistic Model/Dose Response/XLfit 4.2, IDBS software and were used to calculate the IC50 values (Table 2).

[7] = 24 hr, read-out: EC50 apoptosis induction, range over three cell lines

Sequence of Stat3 (P40763 whole entry, species assumed): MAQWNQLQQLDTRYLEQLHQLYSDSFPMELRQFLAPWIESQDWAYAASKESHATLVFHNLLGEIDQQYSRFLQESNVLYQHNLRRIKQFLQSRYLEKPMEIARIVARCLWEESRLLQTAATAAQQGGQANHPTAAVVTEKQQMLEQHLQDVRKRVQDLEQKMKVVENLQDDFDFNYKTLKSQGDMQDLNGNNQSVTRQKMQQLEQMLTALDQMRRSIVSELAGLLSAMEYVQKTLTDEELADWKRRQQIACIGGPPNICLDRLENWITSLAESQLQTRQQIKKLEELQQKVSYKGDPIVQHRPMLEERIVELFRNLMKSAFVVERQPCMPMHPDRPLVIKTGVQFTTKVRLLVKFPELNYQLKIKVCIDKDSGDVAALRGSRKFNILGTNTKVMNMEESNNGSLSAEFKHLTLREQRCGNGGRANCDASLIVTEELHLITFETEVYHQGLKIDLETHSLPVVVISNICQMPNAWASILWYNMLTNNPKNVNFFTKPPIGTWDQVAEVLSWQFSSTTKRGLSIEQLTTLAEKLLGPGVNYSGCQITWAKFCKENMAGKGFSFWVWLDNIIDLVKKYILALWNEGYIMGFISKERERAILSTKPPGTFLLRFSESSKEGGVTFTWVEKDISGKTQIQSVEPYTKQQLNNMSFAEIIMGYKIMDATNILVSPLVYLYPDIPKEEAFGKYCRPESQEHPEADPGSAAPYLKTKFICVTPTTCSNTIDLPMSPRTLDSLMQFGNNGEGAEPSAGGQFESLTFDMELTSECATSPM

Compound	EC50 (MDA-MB-468) [µM]	EC50 (MDA-MB-435) [µM]	EC50 (MCF7) [µM]	EC50 (MDA-MB-231) [µM]	EC50 (MDA-MB-453) [µM]	Apoptosis induction (in words) [1]	Block of IFN-γ-stimulated Stat1 phosphorylation [2]	EC50 [3, 7] [µM]	EC50 ([4]; concentrations up to 300 µM, read-out: EC50 apoptosis induction, MDA-MB-453 and MCF7) [µM]	IC50 (Stat3) [µM]	IC50 [5] [µM]	IC50 ([6]; Mus musculus, compound 1 hour, then IL-6 200 ng/ml and IL-6sR 250 ng/ml 30 min, read-out: HTFM IC50, inhibition of IL-6-mediated Stat3 nuclear translocation) [µM]	Block of ligand-mediated nuclear translocation of GFP-Stat3α (in words) ([6]; preincubation with compound)	EC50 ([3]; read-out: EC50 apoptosis induction, mean±SD over three cell lines) [µM]	EC50 ([4]; read-out: EC50 apoptosis induction, mean±SD over MDA-MB-453 and MCF7) [µM]
CC[C@@]1(O)C(=O)OCc2c1cc1n(c2=O)Cc2cc3ccccc3nc2-1 [CAM, camptothecin, reference compound]	0.74	1.64	0.13	1.62	0.93	–	–	–	–	–	–	–	–	–	–
COC(=O)Cc1c(C)c2ccc(OCc3ccc(C(=O)OC)cc3)c(C)c2oc1=O [Cpd3-7, methyl 4-({[3-(2-methoxy-2-oxoethyl)-4,8-dimethyl-2-oxo-2H-chromen-7-yl]oxy}methyl)benzoate]	–	–	–	–	–	neither Cpd3-2 nor Cpd3-7 induced apoptosis	did not	–	–	–	–	–	–	–	–
CCN1C(=O)C(=Cc2ccc(-c3ccc(C(=O)O)cc3)o2)SC1=S [Cpd30, 4-{5-[(3-ethyl-4-oxo-2-thioxo-1,3-thiazolidin-5-ylidene)methyl]-2-furyl}benzoic acid]	6.42	16.3	> 300	92	> 300	–	did not	6.4 to 92.2	> 300	–	–	–	–	–	–
CCN1C(=O)C(=Cc2ccc(-c3cc(C(=O)O)ccc3Cl)o2)C(=O)N(CC)C1=S [Cpd30-12, 4-chloro-3-{5-[(1,3-diethyl-4,6-dioxo-2-thioxotetrahydro-5(2H)-pyrimidinylidene)methyl]-2-furyl}benzoic acid]	–	–	–	–	–	–	blocked Stat1 phosphorylation	–	–	114	60	> 300	not	–	–
O=C(O)CSc1cc(NS(=O)(=O)c2ccc(C(=O)O)cc2)c2ccccc2c1O [Cpd188, 4-[({3-[(carboxymethyl)thio]-4-hydroxy-1-naphthyl}amino)sulfonyl]benzoic acid]	0.73	7.01	17.2	3.96	15.5	–	did not	0.7 to 7	–	–	–	–	–	3.9 ± 3.1	16.4 ± 1.2
